# Results published in patent publication US6605637B1, “Lipoic acid derivatives, their preparation, and pharmaceutical compositions containing them” (Societe de Conseils de Recherches et d'Applications …, priority 1999, dated 2003).
# Structures can show the parent of a compound that is named as a salt.
# System: HT-22 cells
# Assay: Protection of HT-22 cells from oxidation stress induced by glutamate (MTT viability)
# Assay type: cell-based
# Conditions: HT-22 mouse hippocampal line; glutamate 5 mM; viability after 24 h by MTT
# Protocol: Study of the Effects on the Oxidation Stress Induced by Glutamate on Cells in Culture (HT-22).
# The inhibitory activity of the products of the invention is determined by measuring their ability to protect the cells of a mouse hippocampal line (HT-22) of an oxidation stress caused by glutamate. The biosynthesis of glutathione, an essential element of cell detoxification of free radicals, requires the active transport of cystine to the interior of the cell. The glutamate by opposing the penetration of cystine causes a reduction in the level of glutathione which leads to the death of the cell due to oxidation stress (Davis, J. B. and Maher, P., Brain Res., (1994) 652: 169-173; Murphy, T. H. et al., Neuron, (1989) 2: 1547-1558). The cells are cultured at 37° C. in a DMEM medium with 10% of foetal calf serum added to it. The tests are carried out in 96-well plates containing 5000 cells per well. The glutamate (5 mM) is added to the medium containing or not containing the products to be tested. The cell viability is tested after 24 h by the MTT method (Hansen, M. B. et al., J Immunol. Methods (1989), 119, 203-210). The ability of the compounds to protect the cells from the toxic action of the glutamate is estimated in EC50, calculated relative to the viability of cells which have not been subjected to the action of glutamate considered as 100% viability.
row,Structure (SMILES),EC50
1,"N=C(Nc1ccc(CCNC(=O)CC2CCSS2)cc1)c1cccs1 (stereo not shown) [Example 3, N-{2-{4[[(2-Thienyl)(imino)methyl]amino]phenyl}ethyl}-1,2-dithiolane-3-acetamide Hydrochloride]",< 30 µM
2,"N=C(Nc1ccc(CCNC(=O)CCCCC2CCSS2)cc1)c1cccs1 (stereo not shown) [Example 2, N-{2-{4[[(2-Thienyl)(imino)methyl]amino]phenyl}ethyl}-1,2-dithiolane-3-pentanamide]",< 30 µM
3,"N=C(Nc1ccc(NC(=O)CCCCC2CCSS2)cc1)c1cccs1 (stereo not shown) [Example 1, N-{4-[[(2-Thienyl)(imino)methyl]amino]phenyl}-1,2-dithiolane-3-pentanamide Hydrochloride]",< 30 µM
4,"Cc1cc(N)nc(CCCCNC(=O)CC2CCSS2)c1 (stereo not shown) [Example 5, N-[4-(6-Amino-4-methyl-2-pyridinyl)butyl]-1,2-dithiolane-3-acetamide Fumarate]",< 30 µM
